Assay results reported in patent US6339100B1, “Methods for inhibiting mastocytosis” (The Trustees of Columbia University in the City of New York, priority 1999, dated 2002).

Experiments:
[1] = tested on: platelet-derived growth factor receptor; settings: cited from earlier work
[2] = tested on: fibroblast growth factor receptor; settings: cited from earlier work
insulin receptor = insulin receptor (Homo sapiens, UniProt P06213); settings: cited from earlier work
[3] = biological target: T1, KIT with substitution of Tyr for Asp814 (P815 KIT) (Mus musculus, UniProt P05532, D818Y); experiment: Phosphorylation of mutant KIT in P815 cells; format: cell-based, murine; settings: 40 μM, 30 min
T1 construct: mutant KITs expressed in C2 and P815 cells; endogenous in cells; host or cells: P815 murine mastocytoma cells
Experimental: (§1) FIG. 1: Effects of indolinone derivatives on phosphorylation of wild-type and mutant KITs. […] The compound with the structure VII or structure VI are effective against KIT containing an activating juxtamembrane domain mutation in C2 cells.
(§2) KIT activity was determined by in vitro phosphorylation, as previously described (Ma et al, 1999a). The neoplastic mast cell line C2 and P815 have been previously described (Dunn et al, 1957; Lazarus et al, 1986; DeVinney and Gold, 1990), and their activating c-KIT mutations characterized (Tsujimura et al, 1994; Ma et al, 1999a). To determine cell proliferation and viability, cells from triplicate cultures were stained with trypan blue and counted in a hemocytometer. All experiments were repeated at least three times.
For activating mutations in the kinase domain, the P815 murine mast cell tumor line (Dunn et al, 1957) was examined. P815 c-KIT contains a point mutation resulting in substitution of Tyr for Asp814, the equivalent position of human Asp816, which causes constitutive receptor activation (Tsujimura et al, 1994).

[4] = tested on: KIT with juxtamembrane insertion mutation (C2 KIT); experiment: Constitutive phosphorylation of mutant KIT in C2 dog mastocytoma cells; format: cell-based; settings: 5 μM
Experimental: as §1, §2
The effects of these compounds on constitutive activation of KIT mutants expressed by neoplastic mast cells were then tested. For activating juxtamembrane mutations, the C2 dog mastocytoma cell line was studied (Lazarus et al, 1986; DeVinney and Gold, 1990), in which KIT is constitutively active due to a juxtamembrane insertion mutation (Ma et al, 1999a). […] The effects of these compounds on constitutive phosphorylation of KIT bearing in the juxtamembrane region either deletion of Trp556-Lys557 or substitution of Pro for Leu575, mutations previously identified in dog mastocytomas (Ma et al, 1999a) were also examined.

P815 cells = experiment: P815 cell proliferation and viability (trypan blue counting); format: cell-based, murine; settings: treated daily with 10 μM
Experimental: (§3) FIG. 2: Effects of indolinone derivatives on neoplastic mast cell growth. […] Results (mean±SEM) represent averages of triplicate cultures.
as §2

wild-type KIT = experiment: Phosphorylation of wild-type KIT expressed in COS cells (anti-phosphotyrosine blot); format: cell-based; settings: 5 μM, 30 min, SCF 100 ng/ml 10 min
Experimental: as §1, §2

C2 cells = experiment: C2 cell proliferation and viability (trypan blue counting); format: cell-based, dog; settings: treated daily with 1 μM
Experimental: as §3, §2

T1 sequence (P05532 25-975 isoform P05532-2 D814Y): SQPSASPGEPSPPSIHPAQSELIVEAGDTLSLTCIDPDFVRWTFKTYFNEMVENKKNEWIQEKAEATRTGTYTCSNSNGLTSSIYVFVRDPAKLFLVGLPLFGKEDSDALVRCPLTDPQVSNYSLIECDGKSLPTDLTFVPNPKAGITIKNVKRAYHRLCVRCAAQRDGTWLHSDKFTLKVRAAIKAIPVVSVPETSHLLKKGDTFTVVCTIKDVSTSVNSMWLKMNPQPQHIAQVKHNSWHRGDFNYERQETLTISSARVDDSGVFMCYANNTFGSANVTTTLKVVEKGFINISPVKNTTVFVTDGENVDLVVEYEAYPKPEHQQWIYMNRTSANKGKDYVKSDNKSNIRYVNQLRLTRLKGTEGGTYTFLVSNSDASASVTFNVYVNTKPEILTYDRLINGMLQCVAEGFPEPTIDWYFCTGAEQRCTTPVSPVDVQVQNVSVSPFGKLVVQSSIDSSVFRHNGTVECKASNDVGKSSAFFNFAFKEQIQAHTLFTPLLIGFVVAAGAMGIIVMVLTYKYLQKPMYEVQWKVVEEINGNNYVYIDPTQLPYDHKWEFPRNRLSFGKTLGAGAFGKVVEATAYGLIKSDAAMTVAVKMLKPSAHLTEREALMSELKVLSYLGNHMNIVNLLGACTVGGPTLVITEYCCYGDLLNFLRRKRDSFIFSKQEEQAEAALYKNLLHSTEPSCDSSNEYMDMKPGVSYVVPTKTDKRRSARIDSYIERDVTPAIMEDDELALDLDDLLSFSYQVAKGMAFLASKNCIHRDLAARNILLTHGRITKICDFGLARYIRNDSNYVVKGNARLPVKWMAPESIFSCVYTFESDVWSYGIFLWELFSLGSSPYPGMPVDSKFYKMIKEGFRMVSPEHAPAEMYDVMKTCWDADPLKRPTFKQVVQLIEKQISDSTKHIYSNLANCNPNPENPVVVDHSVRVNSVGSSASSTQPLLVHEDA
Chain of insulin receptor (P06213 28-1382, species assumed): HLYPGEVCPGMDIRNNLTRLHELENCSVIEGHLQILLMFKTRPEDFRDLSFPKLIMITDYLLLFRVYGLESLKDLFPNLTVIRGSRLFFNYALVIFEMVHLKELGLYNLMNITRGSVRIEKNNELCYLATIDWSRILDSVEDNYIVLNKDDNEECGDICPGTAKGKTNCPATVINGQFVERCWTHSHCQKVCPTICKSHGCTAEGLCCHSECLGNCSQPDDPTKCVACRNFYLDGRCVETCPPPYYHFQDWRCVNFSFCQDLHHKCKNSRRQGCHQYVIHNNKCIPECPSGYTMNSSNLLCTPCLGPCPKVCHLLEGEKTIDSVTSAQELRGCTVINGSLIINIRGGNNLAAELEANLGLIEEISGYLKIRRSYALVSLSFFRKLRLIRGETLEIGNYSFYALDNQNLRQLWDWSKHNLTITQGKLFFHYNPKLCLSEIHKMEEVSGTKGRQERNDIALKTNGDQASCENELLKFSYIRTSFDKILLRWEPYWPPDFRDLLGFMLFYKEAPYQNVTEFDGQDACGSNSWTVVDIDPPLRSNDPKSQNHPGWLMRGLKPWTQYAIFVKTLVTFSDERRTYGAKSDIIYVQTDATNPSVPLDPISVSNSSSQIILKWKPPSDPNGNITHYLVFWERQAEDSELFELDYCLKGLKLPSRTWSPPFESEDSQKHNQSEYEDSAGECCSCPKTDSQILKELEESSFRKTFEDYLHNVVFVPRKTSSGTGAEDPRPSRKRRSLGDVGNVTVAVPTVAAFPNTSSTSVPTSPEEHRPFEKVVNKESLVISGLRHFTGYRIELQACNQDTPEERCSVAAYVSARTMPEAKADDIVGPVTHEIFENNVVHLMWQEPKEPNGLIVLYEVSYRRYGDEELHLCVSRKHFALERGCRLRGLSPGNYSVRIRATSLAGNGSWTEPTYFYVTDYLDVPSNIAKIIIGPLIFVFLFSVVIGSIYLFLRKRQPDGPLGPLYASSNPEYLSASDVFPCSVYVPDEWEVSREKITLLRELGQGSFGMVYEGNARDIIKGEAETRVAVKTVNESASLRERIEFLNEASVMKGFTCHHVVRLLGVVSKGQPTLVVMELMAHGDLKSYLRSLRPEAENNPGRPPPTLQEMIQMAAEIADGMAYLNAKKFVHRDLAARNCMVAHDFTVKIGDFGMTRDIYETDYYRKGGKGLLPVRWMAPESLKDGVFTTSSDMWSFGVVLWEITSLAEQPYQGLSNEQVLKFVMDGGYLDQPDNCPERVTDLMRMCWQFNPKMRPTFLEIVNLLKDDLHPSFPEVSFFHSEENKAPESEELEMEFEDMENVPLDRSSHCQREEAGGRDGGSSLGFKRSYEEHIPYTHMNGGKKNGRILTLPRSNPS

## O=CN1CCN(c2ccc(/C=C3/C(=O)Nc4ccccc43)cc2)CC1 [structure VII]
[1]
  inhibition of platelet-derived growth factor receptor: effective
[2]
  inhibition of fibroblast growth factor receptor: effective
Insulin receptor
  inhibition of insulin receptor: effective
[3]
  inhibition of phosphorylation of the P815 KIT mutant: not effectively inhibiting
[4]
  reduction of the constitutive C2 KIT phosphorylation: approximately 50%
P815 cells
  effect on P815 cell proliferation: killed
wild-type KIT
  effect on tyrosine phosphorylation of the wild-type receptor: substantially reduce
C2 cells
  effect on C2 cell proliferation: killed
